Active and inactive are the calls of the source. The calls are words filed in the database; no cut-off is given here.
Tests used:
Artemia salina = experiment: Toxicity in Artemia salina; assay type: organism-based; conditions: in vivo
Gambusia affinis = experiment: Toxicity in Gambusia affinis; assay type: organism-based; conditions: in vivo
Pseudomonas aeruginosa = experiment: Antibacterial activity against Pseudomonas aeruginosa DSM 1117 at 100 ug/disk by diffusion test; assay type: functional, organism-based
Micrococcus luteus = experiment: Antibacterial activity against Micrococcus luteus DSM 348 at 100 ug/disk by diffusion test; assay type: functional, organism-based
Candida albicans = experiment: Antifungal activity against Candida albicans DSM 1665 at 100 ug/disk by diffusion test; assay type: functional, organism-based
Bacillus subtilis = experiment: Antibacterial activity against Bacillus subtilis DSM 347 at 100 ug/disk by diffusion test; assay type: functional, organism-based
Escherichia coli = experiment: Antibacterial activity against Escherichia coli DSM 1103 at 100 ug/disk by diffusion test; assay type: functional, organism-based

Row | Structure (SMILES) | LC50 (Artemia salina) | LC50 (Gambusia affinis) | Activity (Pseudomonas aeruginosa) | Activity (Micrococcus luteus) | Activity (Candida albicans) | Activity (Bacillus subtilis) | Activity (Escherichia coli)
1 | CC(C)=CCC/C(C)=C/CC/C(C)=C/CC/C(C)=C/CC/C(C)=C/CC/C(C)=C/CC/C(C)=C/Cc1cc(OS(=O)(=O)[O-])ccc1O.[Na+] | 0.02 ppm | 15.6 ppm | inactive | inactive | inactive | inactive | inactive
2 | CC(C)=CCC/C(C)=C/CC/C(C)=C/CC/C(C)=C/CC/C(C)=C/CC/C(C)=C/CC/C(C)=C/CC/C(C)=C/Cc1cc(O)ccc1O | 0.98 ppm | > 100 ppm |  |  |  |  | 
3 | CC(C)=CCC/C(C)=C/CC/C(C)=C/CC/C(C)=C/CC/C(C)=C/CC/C(C)=C/CC/C(C)=C/CCC1(C)C=Cc2cc(O)ccc2O1 (stereo not drawn) | 1.45 ppm | > 100 ppm | inactive | inactive | inactive | inactive | inactive
4 | CC(C)=CCC/C(C)=C/CC/C(C)=C/CC/C(=C/CC/C(C)=C/CC/C(C)=C/CC/C(C)=C/CC/C(C)=C/Cc1cc(O)ccc1O)CO | 0.35 ppm | > 100 ppm | inactive | inactive | inactive | inactive | inactive
5 | CC(C)=CCC/C(C)=C/CC/C(C)=C/CC/C(=C/CC/C(C)=C/CC/C(C)=C/CC/C(C)=C/CCC1(C)C=Cc2cc(O)ccc2O1)CO (stereo not drawn) | 32.3 ppm | > 100 ppm | inactive | inactive | inactive | inactive | inactive
6 | CC(C)=CCC/C(C)=C/CC/C(C)=C/CC/C(C)=C/CC/C(C)=C/CC/C(C)=C/CCC1(C)C=Cc2cc(O)ccc2O1 (stereo not drawn) | 1.15 ppm | > 100 ppm | inactive | inactive | inactive | inactive | inactive
7 | CC(C)=CCC/C(C)=C/CC/C(C)=C/CC/C(C)=C/CC/C(C)=C/CC/C(C)=C/CC/C(C)=C/Cc1cc(O)ccc1O | 0.91 ppm | > 100 ppm |  |  |  |  | 
8 | CC(C)=CCC/C(C)=C/CC/C(C)=C/CC/C(=C/CC/C(C)=C/CC/C(C)=C/CC/C(C)=C/CC/C(C)=C/Cc1cc(OS(=O)(=O)[O-])ccc1O)CO.[Na+] | 0.05 ppm | 19.6 ppm | inactive | inactive | inactive | inactive | inactive
9 | CC(C)=CCC/C(C)=C/CC/C(C)=C/CC/C(C)=C/CC/C(C)=C/CC/C(C)=C/CC/C(C)=C/CC/C(C)=C/Cc1cc(OS(=O)(=O)[O-])ccc1O.[Na+] | 0.04 ppm | 16.9 ppm | inactive | inactive | inactive | inactive | inactive

Source: ChEMBL document CHEMBL1159295, “Sulfated Polyprenylhydroquinones from the Sponge Ircinia spinosula” (J Nat Prod, 1995)
